Article PMC6520686, “Activation Studies of the γ-Carbonic Anhydrases from the Antarctic Marine Bacteria Pseudoalteromonas haloplanktis and Colwellia psychrerythraea with Amino Acids and Amines” (Marine Drugs, 2019)

Key:
PhaCA = tested on: T1, PhaCA; experiment: stopped-flow CO2 hydration assay; assay type: biochemical, Pseudoalteromonas haloplanktis; details: activation constant (activator); CO2 substrate; TRIS pH 8.3, 0.1 M NaClO4, 25 °C; 15 min pre-incubation
T1 construct: purified recombinant gamma-class enzyme
Excerpt: stopped-flow CO2 hydration assay on PhaCA

CpsCA = tested on: T2, CpsCA; experiment: stopped-flow CO2 hydration assay; assay type: biochemical, Colwellia psychrerythraea; details: activation constant (activator); CO2 substrate; TRIS pH 8.3, 0.1 M NaClO4, 25 °C; 15 min pre-incubation
T2 construct: purified recombinant gamma-class enzyme
Excerpt: stopped-flow CO2 hydration assay on CpsCA

Row | SMILES | KA (μM) * / PhaCA ^b (PhaCA) [µM] | KA (μM) * / CpsCA ^b (CpsCA) [µM]
1 | N[C@H](Cc1ccccc1)C(=O)O [compound 4, D-Phe] | 3.19 | 15.4
2 | N[C@@H](Cc1ccc(O)c(O)c1)C(=O)O [compound 5, L-DOPA] | 1.08 | 4.79
3 | N[C@H](Cc1ccc(O)c(O)c1)C(=O)O [compound 6, D-DOPA] | 0.72 | 11.2
4 | N[C@@H](Cc1c[nH]c2ccccc12)C(=O)O [compound 7, L-Trp] | 7.12 | 21.3
5 | N[C@@H](Cc1ccc(O)cc1)C(=O)O [compound 9, L-Tyr] | 1.02 | 19.5
6 | N[C@H](Cc1ccc(O)cc1)C(=O)O [compound 10, D-Tyr] | 7.35 | 18.4
7 | Nc1ccc(C[C@H](N)C(=O)O)cc1 [compound 11, 4-H2N-L-Phe] | 3.27 | 17.2
8 | NCCc1c[nH]cn1 [compound 12, Histamine] | 6.48 | 20.6
9 | NCCc1ccc(O)c(O)c1 [compound 13, Dopamine] | 8.70 | 
10 | NCc1ccccn1 [compound 15, 2-Pyridyl-methylamine] | 2.39 | 21.5
11 | N[C@H](CCC(=O)O)C(=O)O [compound 23, D-Glu] |  | 12.0
